Key:
[1] = system: rat pituitary tumor; conditions: cited from earlier work
[2] = system: chemically induced rat skin tumor; conditions: cited from earlier work
[3] = system: xenografted human pancreatic tumor; conditions: cited from earlier work
[4] = system: pancreas carcinoma; assay: PDT of a pancreas carcinoma, four intravenous administrations (Example 1); assay type: in vivo; conditions: 100-200 J/cm^2 at approximately 100 mW/cm^2
Description: A formulation of the PS pheophorbide a is administered intravenously 4 times as described above, with doses ranging from approximately 2 to 20 mg of PS per kilogram of body weight, achieving an at least a 50:1 ratio of PS content in the carcinoma to the PS content in the surrounding healthy pancreatic tissue. Light guiding fibres are placed within the tumor under imaging guidance. The tumor is irradiated with an energy density sufficient to necrotize the diseased tissue, preferably 100-200 J/cm^2, at a power density of approximately 100 mW/cm^2.

[5] = system: tumor; assay: PS concentration over time in tumor and normal tissue during repetitive administration of pheophorbide a (FIG. 1); assay type: in vivo
Description: FIG. 1 Graphic representation of PS concentration over time in tumor and normal tissue, for example the skin, during repetitive administration of pheophorbide a.
FIG. 1 illustrates preferred intervals between administration of doses of pheophorbide a in cancerous tissue. As is shown in the figure, upon a first administration the concentration of pheophorbide a is initially high and slowly decreases. The concentration in healthy tissue quickly decreases and levels off, where at 24 hours the concentration in healthy tissue is very low and has reached a point where the concentration decreases very slowly. After the first 24 hour interval, the concentration in the tumor is 17 times that in healthy cells. The same effect is observed after the second administration of pheophorbide a. As a result, after a total of four administrations and a total time of 96 hours, the concentration of pheophorbide a in healthy tissues remains very small, and the concentration in the tumor is greater by a factor of 68.

[6] = system: pancreatic tumor; conditions: rats, cited from earlier work
[7] = system: tumor; conditions: mice; cited from earlier work

Row | Compound | time at which content of normal pituitary gland reached a basal value ([1]; rat normal pituitary gland) [h] | change of pheophorbide a content of tumor ([1]; rat pituitary tumor, during 6 hours after administration) | time for which pheophorbide a content remained high in tumor ([2]; chemically induced rat skin tumor, after administration) | time at which pheophorbide a content of normal skin reached a basal value ([2]; rat normal skin, after administration) [h] | basal normal skin content as fraction of tumor pheophorbide a content ([2]; rat, 24 hours after administration) | time at which PS content of normal skin reached a low basal value ([3]; nude mice normal skin) [h] | change of pheophorbide a content of tumor ([3]; xenografted human pancreatic tumor in nude mice, between 4 and 48 hours after administration) | effect on surrounding tissue upon irradiation [4] | concentration in tumor relative to healthy tissues ([5]; after four administrations, total time 96 hours) [factor] | concentration in tumor relative to healthy cells ([5]; after the first 24 hour interval, one administration) [times] | time at which pheophorbide a content of normal pancreas reached a low constant value ([6]; normal pancreas) [h] | time for which content of pancreatic tumor remained elevated ([6]; pancreatic tumor) | change in concentration in plasma, single versus double injections [7] | relative concentration in skin and tumor tissue, single versus double injections [7]
1 | pheophorbide a | 4 | decreased slowly | up to 48 hours | ≤ 24 | one tenth | 24 | did not decrease | remains intact | 68 | 17 | 24 | at least 48 hours |  | 
2 | Oc1cccc(-c2c3nc(c(-c4cccc(O)c4)c4ccc([nH]4)c(-c4cccc(O)c4)c4nc(c(-c5cccc(O)c5)c5ccc2[nH]5)CC4)C=C3)c1 [Foscan, meta-tetrahydroxyphenylchlorin] |  |  |  |  |  |  |  |  |  |  |  |  | not significantly different | nor was the relative concentration in skin and tumor tissue significantly different

Reference: patent US6821289B2, “Efficacy and safety of photodynamic therapy by multiple application protocols with photosensitizers that show extended tumor retention” (CeramOptec Industries, Inc., priority 2003, dated 2004)
